The target in one assay is SARS-CoV-2 3CL-protease (Severe acute respiratory syndrome coronavirus 2, UniProt P0DTD1). The assay is described as follows: SARS-CoV-2 3C-like (3CL) protease fluorescence assay (FRET). The class given is biochemical. The following applies: recombinant SARS-CoV-2 3CL-protease 10 nM, 30 min preincubation, run in duplicate; read-out: FRET IC50.
Assay [1] deals with 229E human corona virus (hCoV). The assay can be described thus: 229E live virus assay (CPE, ATPlite readout in MRC-5 cells). Format: cell-based, hCoV-229E. As to conditions: Human coronavirus 229E, MRC5, 144 h, MOI 0.05, 6 days at 34° C., run in duplicate. (In general: Cellular ATP, detected with luciferase, serves as a proxy for viable cell number.)

Where only a bound is given, the exact number is not on record here.

`CC(C)(C)C[C@H](NC(=O)C(=O)NC1(c2ccccc2)CC1)C(=O)N1C[C@]2(C[C@H]1C#N)C(=O)Nc1ccccc12` [Example 118]: the IC50 (usually the concentration needed to halve the response being measured) on SARS-CoV-2 3CL-protease was below 100 nM. Moreover, in assay [1], the EC50 (commonly the concentration at which the effect is half-maximal) is below 100 nM.
On to `[2H]C([2H])([2H])N(C(=O)C(=O)NC1(c2ccc(F)cc2F)CC1)[C@@H](CC1CC1)C(=O)N1C[C@]2(C[C@H]1C#N)C(=O)Nc1ccccc12` [Example 191], for which the IC50 at SARS-CoV-2 3CL-protease is below 100 nM. The compound further came in with an EC50 in assay [1] below 100 nM.
Regarding `CC(C)(C)C[C@H](NC(=O)C(=O)NCc1ccccc1)C(=O)N1C[C@]2(C[C@H]1C#N)C(=O)Nc1ccccc12` [Example 159], the IC50 at SARS-CoV-2 3CL-protease is below 100 nM. Further, the EC50 in assay [1] was below 100 nM.
In the case of `N#C[C@@H]1C[C@@]2(CN1C(=O)[C@H](CC1CC1)NC(=O)C(=O)NC1(c3ccc(F)cc3F)CC1)C(=O)Nc1ccccc12` [Example 74], the IC50 at SARS-CoV-2 3CL-protease was below 100 nM. This compound also returned an EC50 in assay [1] below 100 nM.
Turning to `CC(C)(C)C[C@H](NC(=O)C(=O)Nc1cccc(F)c1)C(=O)N1C[C@]2(C[C@H]1C#N)C(=O)Nc1ccccc12` [Example 89], on SARS-CoV-2 3CL-protease, the IC50 was below 100 nM. Besides, in assay [1], the EC50 was below 100 nM.
For the compound `CC(C)C[C@@H](C(=O)N1C[C@]2(C[C@H]1C#N)C(=O)Nc1ccccc12)N(C)C(=O)C(=O)Nc1ccc(F)cc1F` [Example 1], in assay [1], the EC50 is below 100 nM.
Compound `CC(C)(C)C[C@H](NC(=O)C(=O)Nc1ccccc1)C(=O)N1C[C@]2(C[C@H]1C#N)C(=O)Nc1ccccc12` [Example 104] showed an EC50 in assay [1] below 100 nM.
Still for that read-out and setting: for `CC(C)(C)C[C@H](NC(=O)C(=O)NC1CCC1)C(=O)N1C[C@]2(C[C@H]1C#N)C(=O)Nc1ccccc12` [Example 87] the value was below 100 nM.
For `Cc1cccc(C)c1NC(=O)C(=O)N[C@@H](CC1CC1)C(=O)N1C[C@]2(C[C@H]1C#N)C(=O)Nc1ccccc12` [Example 78], the IC50 on SARS-CoV-2 3CL-protease is below 100 nM.
Same read-out and setting: for `N#C[C@@H]1C[C@@]2(CN1C(=O)[C@H](CC1CC1)NC(=O)C(=O)Nc1c(Cl)cc(Cl)cc1C(F)(F)F)C(=O)Nc1ccccc12` [Example 205] the value was below 100 nM.
Still for that read-out and setting: for `CC(C)(C)C[C@H](NC(=O)C(=O)Nc1ccc2cccnc2c1)C(=O)N1C[C@]2(C[C@H]1C#N)C(=O)Nc1ccccc12` [Example 113] the value was below 100 nM.
As to `CC(C)(C)C[C@H](NC(=O)C(=O)Nc1c(C(F)(F)F)ccc(Cl)c1Cl)C(=O)N1C[C@]2(C[C@H]1C#N)C(=O)Nc1ccccc12` [Example 210], the IC50 at SARS-CoV-2 3CL-protease was below 100 nM.
Take `Cc1cccc(C(F)(F)F)c1NC(=O)C(=O)N[C@@H](CC(C)(C)C)C(=O)N1C[C@]2(C[C@H]1C#N)C(=O)Nc1ccccc12` [Example 132]: on SARS-CoV-2 3CL-protease, the IC50 is below 100 nM.
`CC(C)(C)C[C@H](NC(=O)C(=O)NC(C)(C)C)C(=O)N1C[C@]2(C[C@H]1C#N)C(=O)Nc1ccccc12` [Example 95]: the EC50 in assay [1] was below 100 nM.
Consider `Cc1cccc(C)c1NC(=O)C(=O)N[C@@H](CC(C)C)C(=O)N1C[C@]2(C[C@H]1C#N)C(=O)Nc1ccccc12` [Example 201], for which the IC50 on SARS-CoV-2 3CL-protease was below 100 nM.
As to `Cc1cccc(Cl)c1NC(=O)C(=O)N[C@@H](CC(C)(C)C)C(=O)N1C[C@]2(C[C@H]1C#N)C(=O)Nc1ccccc12` [Example 147], the IC50 on SARS-CoV-2 3CL-protease was below 100 nM.
In the case of `N#C[C@@H]1C[C@@]2(CN1C(=O)[C@H](CC1CC1)NC(=O)C(=O)Nc1ccc(C(F)(F)F)cn1)C(=O)Nc1ccccc12` [Example 169], the IC50 at SARS-CoV-2 3CL-protease is below 100 nM.
The same measure, in the same setting: the value for `Cc1cccc(C)c1NC(=O)C(=O)N[C@@H](Cc1ccccc1)C(=O)N1C[C@]2(C[C@H]1C#N)C(=O)Nc1ccccc12` [Example 203] was below 100 nM; that for `CC(C)(C)C[C@H](NC(=O)C(=O)N[C@]12C[C@](C)(C1)C2)C(=O)N1C[C@]2(C[C@H]1C#N)C(=O)Nc1ccccc12` [Example 141] was below 100 nM.
Consider `CC(C)(C)C[C@H](NC(=O)C(=O)N1CCCCC1)C(=O)N1C[C@]2(C[C@H]1C#N)C(=O)Nc1ccccc12` [Example 110], for which, at SARS-CoV-2 3CL-protease, the concentration for half-maximal inhibition (IC50) was above 1000 nM.
Same read-out and setting: for `CC(C)(C)C[C@H](NC(=O)C(=O)Nc1ncccc1C(F)(F)F)C(=O)N1C[C@]2(C[C@H]1C#N)C(=O)Nc1ccccc12` [Example 125] the value was below 100 nM; for `[2H]C([2H])([2H])N(C(=O)C(=O)Nc1ccc(F)cc1C(F)(F)F)[C@@H](CC1CC1)C(=O)N1C[C@]2(C[C@H]1C#N)C(=O)Nc1ccccc12` [Example 55], below 100 nM.
The same measure, in the same setting: the value for `CC(C)(C)C[C@@H](C(=O)N1C[C@]2(C[C@H]1C#N)C(=O)Nc1ccccc12)N(CC(F)F)C(=O)C(=O)Nc1ccc(F)cc1` [Example 62] was 100 to 1000 nM; that for `CC(C)(C)C[C@@H](C(=O)N1C[C@]2(C[C@H]1C#N)C(=O)Nc1ccccc12)N(CC(F)F)C(=O)C(=O)Nc1ccccc1` [Example 60] was 100 to 1000 nM.
As for `N#C[C@@H]1C[C@@]2(CN1C(=O)[C@H](CC1CC1)NC(=O)C(=O)Nc1cc(C(F)(F)F)ccn1)C(=O)Nc1ccccc12` [Example 168], at SARS-CoV-2 3CL-protease, the IC50 is below 100 nM.
On the same count and under the same terms, for `CC(C)(C)C[C@H](NC(=O)C(=O)Nc1cc(F)cc(F)c1)C(=O)N1C[C@]2(C[C@H]1C#N)C(=O)Nc1ccccc12` [Example 86] the value was below 100 nM.
In the case of `CC(C)(C)C[C@@H](C(=O)N1C[C@]2(C[C@H]1C#N)C(=O)Nc1ccccc12)N(CC(F)(F)F)C(=O)C(=O)Nc1ccccc1` [Example 65], at SARS-CoV-2 3CL-protease, the IC50 lay within 100 to 1000 nM.
For `CC(C)(C)C[C@H](NC(=O)C(=O)Nc1ccc2ncccc2c1)C(=O)N1C[C@]2(C[C@H]1C#N)C(=O)Nc1ccccc12` [Example 114], at SARS-CoV-2 3CL-protease, the IC50 was below 100 nM.
As for `N#C[C@@H]1C[C@@]2(CN1C(=O)[C@H](CC1CC1)NC(=O)C(=O)Nc1c(F)cccc1C(F)(F)F)C(=O)Nc1ccccc12` [Example 200], at SARS-CoV-2 3CL-protease, the IC50 was below 100 nM.
On the same count and under the same terms, for `CC(C)(C)C[C@H](NC(=O)C(=O)NC1(c2ccc(C(F)(F)F)cc2)CC1)C(=O)N1C[C@]2(C[C@H]1C#N)C(=O)Nc1ccccc12` [Example 108] the value was below 100 nM; for `Cc1cccnc1NC(=O)C(=O)N[C@@H](CC(C)(C)C)C(=O)N1C[C@]2(C[C@H]1C#N)C(=O)Nc1ccccc12` [Example 126], below 100 nM.
With `CC(C)(C)C[C@H](NC(=O)C(=O)Nc1c(Cl)cccc1C#N)C(=O)N1C[C@]2(C[C@H]1C#N)C(=O)Nc1ccccc12` [Example 148], the IC50 on SARS-CoV-2 3CL-protease was below 100 nM.
The same measure, in the same setting: the value for `CC(C)(C)C[C@H](NC(=O)C(=O)Nc1c(C#N)cccc1C(F)(F)F)C(=O)N1C[C@]2(C[C@H]1C#N)C(=O)Nc1ccccc12` [Example 145] was 100 to 1000 nM; that for `Cc1cc(F)cc(C)c1NC(=O)C(=O)N[C@@H](CC(C)(C)C)C(=O)N1C[C@]2(C[C@H]1C#N)C(=O)Nc1ccccc12` [Example 143] was below 100 nM.
The same measure, in the same setting: the value for `CC(C)(C)C[C@H](NC(=O)C(=O)Nc1ncccc1F)C(=O)N1C[C@]2(C[C@H]1C#N)C(=O)Nc1ccccc12` [Example 121] was below 100 nM; that for `N#C[C@@H]1C[C@@]2(CN1C(=O)[C@H](CC1CC1)NC(=O)C(=O)Nc1ccnc(C(F)(F)F)c1)C(=O)Nc1ccccc12` [Example 176] was below 100 nM.
Turning to `CN(C(=O)C(=O)Nc1c(Cl)cccc1Cl)[C@@H](CC(C)(C)C)C(=O)N1C[C@]2(C[C@H]1C#N)C(=O)Nc1ccccc12` [Example 151], at SARS-CoV-2 3CL-protease, the IC50 was below 100 nM.
With `CC(C)(C)C[C@H](NC(=O)C(=O)NC12CCC(CC1)CC2)C(=O)N1C[C@]2(C[C@H]1C#N)C(=O)Nc1ccccc12` [Example 130], at SARS-CoV-2 3CL-protease, the IC50 is below 100 nM.
Turning to `Cc1ccnc(C)c1NC(=O)C(=O)N[C@@H](CC(C)(C)C)C(=O)N1C[C@]2(C[C@H]1C#N)C(=O)Nc1ccccc12` [Example 152], the IC50 on SARS-CoV-2 3CL-protease was below 100 nM.
Same read-out and setting: the value for `N#C[C@@H]1C[C@@]2(CN1C(=O)[C@H](CC1CC1)NC(=O)C(=O)Nc1c(Cl)cc(F)cc1C(F)(F)F)C(=O)Nc1ccccc12` [Example 209] was below 100 nM; that for `CN(C(=O)C(=O)N[C@@H](CC(C)(C)C)C(=O)N1C[C@]2(C[C@H]1C#N)C(=O)Nc1ccccc12)C1CC1` [Example 109] was above 1000 nM; that for `CC(C)(C)C[C@H](NC(=O)C(=O)Nc1c(Cl)cc(F)cc1Cl)C(=O)N1C[C@]2(C[C@H]1C#N)C(=O)Nc1ccccc12` [Example 204] was below 100 nM.
Same read-out and setting: the value for `CC(C)(C)C[C@@H](C(=O)N1C[C@]2(C[C@H]1C#N)C(=O)Nc1ccccc12)N(CC(F)(F)F)C(=O)C(=O)Nc1ccccn1` [Example 66] was above 1000 nM.
The same measure, in the same setting: for `CC(C)(C)C[C@H](NC(=O)C(=O)Nc1c(F)ccc(F)c1F)C(=O)N1C[C@]2(C[C@H]1C#N)C(=O)Nc1ccccc12` [Example 150] the value was below 100 nM; for `CC(C)(C)C[C@H](NC(=O)C(=O)NC1(C)CCC1)C(=O)N1C[C@]2(C[C@H]1C#N)C(=O)Nc1ccccc12` [Example 164], below 100 nM; for `CC(C)(C)C[C@H](NC(=O)C(=O)Nc1ccc(C(F)(F)F)cc1C(F)(F)F)C(=O)N1C[C@]2(C[C@H]1C#N)C(=O)Nc1ccccc12` [Example 137], 100 to 1000 nM.
`CCCC[C@H](NC(=O)C(=O)Nc1c(C)cccc1C)C(=O)N1C[C@]2(C[C@H]1C#N)C(=O)Nc1ccccc12` [Example 202]: at SARS-CoV-2 3CL-protease, the 50% inhibitory concentration (IC50) is below 100 nM.
`CC(C)(C)C[C@H](NC(=O)C(=O)Nc1c(F)cccc1C(F)(F)F)C(=O)N1C[C@]2(C[C@H]1C#N)C(=O)Nc1ccccc12` [Example 196]: the IC50 on SARS-CoV-2 3CL-protease was below 100 nM.
For `CC(C)(C)C[C@@H](C(=O)N1C[C@]2(C[C@H]1C#N)C(=O)Nc1ccccc12)N(CC(F)F)C(=O)C(=O)Nc1ccccn1` [Example 61], the IC50 on SARS-CoV-2 3CL-protease was above 1000 nM.
Regarding `N#C[C@@H]1C[C@@]2(CN1C(=O)[C@H](CC1CC1)NC(=O)C(=O)Nc1cccc(C(F)(F)F)n1)C(=O)Nc1ccccc12` [Example 170], the IC50 at SARS-CoV-2 3CL-protease is below 100 nM.
The same measure, in the same setting: the value for `Cc1cccc(NC(=O)C(=O)N[C@@H](CC(C)(C)C)C(=O)N2C[C@]3(C[C@H]2C#N)C(=O)Nc2ccccc23)n1` [Example 163] was below 100 nM; that for `CC(C)(C)C[C@H](NC(=O)C(=O)Nc1c(C(F)(F)F)cncc1C(F)(F)F)C(=O)N1C[C@]2(C[C@H]1C#N)C(=O)Nc1ccccc12` [Example 207] was below 100 nM.

The values above are taken from patent US12643905B2, “Spiropyrrolidine derived antiviral agents” (priority 2021, dated 2026).
